Laboratory results from US20070227388A1, “Tetrakisazo Compound, Coloring Matter for Recording, Ink Composition and Colored Article” (priority 2004, published 2007).

Assay: solubility test in water (ammonia alkali) by filter paper spot
Type: physicochemical
Method: (Desalination process) After 83.0 parts of the compound of Formula (28) obtained in the fifth process was dissolved in 800 parts of water, 900 parts of methanol was added, and the deposited coloring matter was filtered and then dried to obtain 66.4 parts of desalted black coloring matter of Formula (28) (a compound No. 1 in Table 1: Na salt). The maximum absorption wavelength (λ max) of this coloring matter in water was 619 nm, and solubility test in water (ammonia alkali) by filter paper spot was no less than 100 g/l. [drawing 72]

SMILES | solubility [mg/mL]
COc1ccc(N=Nc2c(S(=O)(=O)O)cc3c(S(=O)(=O)O)c(N=Nc4cc(S(=O)(=O)O)c5cc(S(=O)(=O)O)c(N=Nc6ccc7c(O)c(N=Nc8ccccc8S(=O)(=O)O)c(S(=O)(=O)O)cc7c6)c(O)c5c4N)ccc3c2O)c(S(=O)(=O)O)c1 [No. 1] | ≥ 100
Nc1c(N=Nc2cc3c(O)c(N=Nc4ccc([N+](=O)[O-])cc4S(=O)(=O)O)c(S(=O)(=O)O)cc3cc2S(=O)(=O)O)cc(S(=O)(=O)O)c2cc(S(=O)(=O)O)c(N=Nc3ccc4c(O)c(N=Nc5ccc([N+](=O)[O-])cc5S(=O)(=O)O)c(S(=O)(=O)O)cc4c3S(=O)(=O)O)c(O)c12 [No. 13] | ≥ 100
Nc1c(N=Nc2ccc3c(O)c(N=Nc4ccc([N+](=O)[O-])cc4S(=O)(=O)O)c(S(=O)(=O)O)cc3c2S(=O)(=O)O)cc(S(=O)(=O)O)c2cc(S(=O)(=O)O)c(N=Nc3ccc4c(O)c(N=Nc5ccc([N+](=O)[O-])cc5S(=O)(=O)O)c(S(=O)(=O)O)cc4c3S(=O)(=O)O)c(O)c12 [No. 16] | ≥ 100
COc1ccc(N=Nc2c(S(=O)(=O)O)cc3c(S(=O)(=O)O)c(N=Nc4cc(S(=O)(=O)O)c5cc(S(=O)(=O)O)c(N=Nc6ccc7c(O)c(N=Nc8ccc(OC)cc8S(=O)(=O)O)c(S(=O)(=O)O)cc7c6S(=O)(=O)O)c(O)c5c4N)ccc3c2O)c(S(=O)(=O)O)c1 [No. 19] | ≥ 100
COc1ccc(N=Nc2c(S(=O)(=O)O)cc3cc(N=Nc4c(S(=O)(=O)O)cc5c(S(=O)(=O)O)cc(N=Nc6ccc7cc(S(=O)(=O)O)c(N=Nc8ccc(OC)cc8S(=O)(=O)O)c(O)c7c6)c(N)c5c4O)ccc3c2O)c(S(=O)(=O)O)c1 [No. 21] | ≥ 100

Further lines, results first:

solubility [mg/mL] | SMILES
≥ 100 | COc1ccc(N=Nc2c(S(=O)(=O)O)cc3cc(S(=O)(=O)O)c(N=Nc4cc(S(=O)(=O)O)c5cc(S(=O)(=O)O)c(N=Nc6ccc7c(O)c(N=Nc8ccccc8S(=O)(=O)O)c(S(=O)(=O)O)cc7c6)c(O)c5c4N)cc3c2O)c(S(=O)(=O)O)c1 [No. 2]
≥ 100 | Nc1c(N=Nc2ccc3cc(S(=O)(=O)O)c(N=Nc4ccc([N+](=O)[O-])cc4S(=O)(=O)O)c(O)c3c2)cc(S(=O)(=O)O)c2cc(S(=O)(=O)O)c(N=Nc3ccc4c(O)c(N=Nc5ccc([N+](=O)[O-])cc5S(=O)(=O)O)c(S(=O)(=O)O)cc4c3S(=O)(=O)O)c(O)c12 [No. 6]
≥ 100 | Nc1c(N=Nc2ccc3c(O)c(N=Nc4cc(C(=O)O)cc(C(=O)O)c4)c(S(=O)(=O)O)cc3c2S(=O)(=O)O)cc(S(=O)(=O)O)c2cc(S(=O)(=O)O)c(N=Nc3ccc4c(O)c(N=Nc5cc(C(=O)O)cc(C(=O)O)c5)c(S(=O)(=O)O)cc4c3S(=O)(=O)O)c(O)c12 [No. 17]
